Measurements published in ChEMBL document CHEMBL5576124, “Discovery of an Exceptionally Orally Bioavailable and Potent HPK1 PROTAC with Enhancement of Antitumor Efficacy of Anti-PD-L1 Therapy” (J Med Chem, 2024).
Active and inactive are the calls of the source. No cut-off for these calls is given here.

Legend:
Jurkat [1] = experiment: Immunostimulatory activity in anti-CD3/CD28 induced human Jurkat cells assessed as downregulation of NF-kappaB phosphorylation by Western blotting analysis; assay type: functional, cell-based
[2] = Half life in ICR mouse at 1 mg/kg,iv measured upto 24 hrs by LC-MS analysis; assay type: ADME, organism-based; conditions: in vivo
[3] = Bioavailability in ICR mouse at 10 mg/kg,po or 1 mg/kg,iv measured upto 24 hrs by LC-MS analysis; assay type: ADME, organism-based; conditions: in vivo
[4] = target: T1, Protein cereblon/Mitogen-activated protein kinase kinase kinase kinase 1 (Homo sapiens, UniProt Q92918+Q96SW2); experiment: PROTAC activity at CRBN/HPK1 in human Jurkat cells assessed as degradation of HPK1 protein by Western blotting analysis; assay type: cell-based
Target sequence in this assay (Q92918 whole entry, looked up): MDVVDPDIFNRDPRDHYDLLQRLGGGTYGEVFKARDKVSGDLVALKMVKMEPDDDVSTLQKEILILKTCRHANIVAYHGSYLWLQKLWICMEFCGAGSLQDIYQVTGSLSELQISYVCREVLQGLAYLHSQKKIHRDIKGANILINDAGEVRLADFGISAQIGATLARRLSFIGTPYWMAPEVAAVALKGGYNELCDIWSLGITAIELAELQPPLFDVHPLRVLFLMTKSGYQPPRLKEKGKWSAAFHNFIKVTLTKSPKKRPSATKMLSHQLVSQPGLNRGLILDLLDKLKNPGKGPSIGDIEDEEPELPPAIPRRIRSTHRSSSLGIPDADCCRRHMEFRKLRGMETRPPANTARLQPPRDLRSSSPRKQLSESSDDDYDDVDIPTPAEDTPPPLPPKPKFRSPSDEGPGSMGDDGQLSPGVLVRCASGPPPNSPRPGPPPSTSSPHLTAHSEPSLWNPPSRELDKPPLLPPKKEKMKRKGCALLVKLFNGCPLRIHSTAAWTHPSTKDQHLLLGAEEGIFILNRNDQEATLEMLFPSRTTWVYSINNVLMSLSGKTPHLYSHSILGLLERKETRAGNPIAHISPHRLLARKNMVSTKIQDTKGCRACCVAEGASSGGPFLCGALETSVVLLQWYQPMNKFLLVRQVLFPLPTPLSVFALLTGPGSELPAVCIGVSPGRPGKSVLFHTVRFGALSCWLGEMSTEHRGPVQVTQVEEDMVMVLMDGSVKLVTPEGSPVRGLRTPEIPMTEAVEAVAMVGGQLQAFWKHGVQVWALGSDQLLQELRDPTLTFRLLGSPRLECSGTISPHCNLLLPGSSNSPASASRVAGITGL
Target sequence in this assay (Q96SW2 whole entry, looked up): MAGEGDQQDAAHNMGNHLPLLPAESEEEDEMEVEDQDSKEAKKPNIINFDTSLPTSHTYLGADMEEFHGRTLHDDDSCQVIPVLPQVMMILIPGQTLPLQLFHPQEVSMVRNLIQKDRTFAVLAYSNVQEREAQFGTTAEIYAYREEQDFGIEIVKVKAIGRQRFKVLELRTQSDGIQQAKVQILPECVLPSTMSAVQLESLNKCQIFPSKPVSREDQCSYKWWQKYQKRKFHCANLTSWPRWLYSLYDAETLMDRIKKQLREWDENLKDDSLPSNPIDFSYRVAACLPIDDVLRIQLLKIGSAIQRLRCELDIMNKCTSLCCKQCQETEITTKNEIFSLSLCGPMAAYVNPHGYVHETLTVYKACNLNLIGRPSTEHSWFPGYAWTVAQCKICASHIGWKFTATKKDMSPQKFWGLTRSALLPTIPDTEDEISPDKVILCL

[5] = AUC (0 to t) in Sprague-Dawley rat at 10 mg/kg,po measured upto 24 hrs by LC-MS analysis; assay type: ADME, organism-based; conditions: in vivo
[6] = target: T1, Protein cereblon/Mitogen-activated protein kinase kinase kinase kinase 1; experiment: (§1) PROTAC activity at CRBN/HPK1 in human Jurkat cells assessed as degradation of HPK1 protein at 1 uM preincubated with thalidomide followed by compound addition incubated for 24 hrs by Western blotting analysis; assay type: cell-based
Target sequence in this assay (Q92918 whole entry, looked up): as the sequence (Q92918 whole entry, looked up) above
Target sequence in this assay (Q96SW2 whole entry, looked up): as the sequence (Q96SW2 whole entry, looked up) above

Jurkat [7] = experiment: Immunostimulatory activity in anti-CD3/CD28 induced human Jurkat cells assessed as increase in IL-2 release incubated for 24 hrs by ELISA; assay type: functional, cell-based
Jurkat [8] = experiment: Antiproliferative activity against human Jurkat cells assessed as inhibition of cell growth at 4 to 10000 nM incubated for 3 days by CCK-8 assay; assay type: functional, cell-based; conditions: dose 4-10000 nM, time 3.0 day
[9] = Toxicity in BALB/c mouse implanted with mouse CT26 cells assessed as change in body weight at 25 mg/kg,po administrated once daily for 15 days; assay type: organism-based; conditions: in vivo, 360 h, time 15 day
[10] = target: T1, Protein cereblon/Mitogen-activated protein kinase kinase kinase kinase 1; experiment: PROTAC activity at CRBN/HPK1 in human Jurkat cells assessed as maximal degradation of HPK1 protein incubated for 24 hrs by Western blotting analysis relative to control; assay type: cell-based
Target sequence in this assay (Q92918 whole entry, looked up): as the sequence (Q92918 whole entry, looked up) above
Target sequence in this assay (Q96SW2 whole entry, looked up): as the sequence (Q96SW2 whole entry, looked up) above

[11] = Cmax in ICR mouse at 10 mg/kg,po measured upto 24 hrs by LC-MS analysis; assay type: ADME, organism-based; conditions: in vivo
[12] = Stability in mouse liver microsomes assessed as parent compound remaining measured after 60 mins; assay type: ADME, Microsome; conditions: read-out: Stability
[13] = target: T1, Protein cereblon/Mitogen-activated protein kinase kinase kinase kinase 1; experiment: PROTAC activity at CRBN/HPK1 in human Jurkat cells assessed as upregulation of HGK expression by Western blotting analysis; assay type: cell-based
Target sequence in this assay (Q92918 whole entry, looked up): as the sequence (Q92918 whole entry, looked up) above
Target sequence in this assay (Q96SW2 whole entry, looked up): as the sequence (Q96SW2 whole entry, looked up) above

[14] = Stability in human liver microsomes assessed as parent compound remaining measured after 60 mins; assay type: ADME, Microsome; conditions: read-out: Stability
[15] = MRT in Sprague-Dawley rat at 10 mg/kg,po measured upto 24 hrs by LC-MS analysis; assay type: ADME, organism-based; conditions: in vivo
[16] = Metabolic stability in mouse liver microsomes assessed as microsomal intrinsic clearance; assay type: ADME, Microsome; conditions: read-out: CLH
CT26 [17] = experiment: Antitumor activity against mouse CT26 cells implanted BALB/c mouse model assessed as tumor growth inhibition at 25 mg/kg,po administrated once daily for 15 days relative to control; assay type: functional; conditions: CT26, 360 h, time 15 day, read-out: TGI
[18] = Metabolic stability in mouse liver microsomes assessed as intrinsic clearance; assay type: ADME, Microsome; conditions: read-out: CLH
[19] = target: T1, Protein cereblon/Mitogen-activated protein kinase kinase kinase kinase 1; experiment: as §1, with “4-(2-(2,5-Dimethyl-1,2,3,4-tetrahydroisoquinolin-7-y1)-5H-pyrrolo[2,3-bipyrazin-7-y1)-N,N,2-trimethylbenzamide” for “thalidomide”; assay type: cell-based
Target sequence in this assay (Q92918 whole entry, looked up): as the sequence (Q92918 whole entry, looked up) above
Target sequence in this assay (Q96SW2 whole entry, looked up): as the sequence (Q96SW2 whole entry, looked up) above

[20] = Metabolic stability in human liver microsomes assessed as intrinsic clearance; assay type: ADME, Microsome; conditions: read-out: CLH
CT26 [21] = experiment: Antitumor activity against mouse CT26 cells implanted BALB/c mouse model assessed as tumor growth inhibition at 25 mg/kg,po administrated once daily for 15 days in presence of anti-PD-L1 antibody relative to control; assay type: functional; conditions: CT26, 360 h, time 15 day, read-out: TGI
Jurkat [22] = experiment: Immunostimulatory activity in anti-CD3/CD28 induced human Jurkat cells assessed as upregulation of JNK expression by Western blotting analysis; assay type: functional, cell-based
[23] = target: T1, Protein cereblon/Mitogen-activated protein kinase kinase kinase kinase 1; experiment: PROTAC activity at CRBN/HPK1 in human Jurkat cells assessed as degradation of HPK1 protein incubated for 24 hrs by Western blotting analysis; assay type: cell-based
Target sequence in this assay (Q92918 whole entry): as the sequence (Q92918 whole entry, looked up) above
Target sequence in this assay (Q96SW2 whole entry): as the sequence (Q96SW2 whole entry, looked up) above

[24] = Half life in ICR mouse at 10 mg/kg,po measured upto 24 hrs by LC-MS analysis; assay type: ADME, organism-based; conditions: in vivo
[25] = Stability in human liver microsomes assessed as parent compound remaining measured after 30 mins; assay type: ADME, Microsome; conditions: read-out: Stability
[26] = target: T1, Protein cereblon/Mitogen-activated protein kinase kinase kinase kinase 1; experiment: PROTAC activity at CRBN/HPK1 in human Jurkat cells assessed as degradation of HPK1 protein at 1 uM preincubated with MLN4924 followed by compound addition incubated for 24 hrs by Western blotting analysis; assay type: cell-based
Target sequence in this assay (Q92918 whole entry, looked up): as the sequence (Q92918 whole entry, looked up) above
Target sequence in this assay (Q96SW2 whole entry, looked up): as the sequence (Q96SW2 whole entry, looked up) above

[27] = target: T1, Protein cereblon/Mitogen-activated protein kinase kinase kinase kinase 1; experiment: PROTAC activity at CRBN/HPK1 in human Jurkat cells assessed as degradation of HPK1 protein at 1 uM preincubated with MG132 followed by compound addition incubated for 24 hrs by Western blotting analysis; assay type: cell-based
[28] = Stability in mouse liver microsomes assessed as parent compound remaining; assay type: ADME, Microsome
[29] = Metabolic stability in human liver microsomes assessed as microsomal intrinsic clearance; assay type: ADME, Microsome; conditions: read-out: CLH
[30] = Metabolic stability in mouse liver microsomes assessed as hepatic extraction ratio; assay type: ADME, Microsome; conditions: read-out: ERH
[31] = target: T1, Protein cereblon/Mitogen-activated protein kinase kinase kinase kinase 1; experiment: PROTAC activity at CRBN/HPK1 in human Jurkat cells assessed as upregulation of GCK expression by Western blotting analysis; assay type: cell-based
Jurkat [32] = experiment: Immunostimulatory activity in anti-CD3/CD28 induced human Jurkat cells assessed as increase in IL-2 release at 10 to 10000 nM incubated for 24 hrs in presence of PGE2 and NECA by ELISA; assay type: functional, cell-based; conditions: dose 10-10000 nM

- half-life [2]: 3.13 h
- bioavailability [3]: 81.7%
- Activity [4]: Active
- AUC(0-t) at 24 h [5]: 16400 ng·h/mL
- Activity [6]: Active
- Emax [10]: 80.5%
- Cmax [11]: 10900 ng/mL
- remaining at 1 h [12]: 59.4%
- Activity [13]: inactive
- remaining at 1 h [14]: 94.5%
- MRT [15]: 9.62 h
- CLint scaled [16]: 16.6 mL/min/kg
- microsomal CLint [18]: 18.4 µL/min/mg
- Activity [19]: Active
- microsomal CLint [20]: 1.4 µL/min/mg
- DC50 [23]: 4.5 nM
- half-life [24]: 4.33 h
- remaining at 0.5 h [25]: 98.3%
- Activity [26]: inactive
- Activity [27]: inactive
- Stability [28]: 100%
- CLint scaled [29]: 5.54 mL/min/kg
- hepatic extraction ratio [30]: 0.444
- Activity [31]: inactive
SMILES: Cc1cc(-c2c[nH]c3ncc(-c4ccc(C5CCN(C6CN(c7ccc8c(c7)C(=O)N(C7CCC(=O)NC7=O)C8=O)C6)CC5)cc4)nc23)ccc1C(=O)N(C)C (configuration not stated)
- Activity (Jurkat [1]): Active
- Activity (Jurkat [7]): Dose-Dependent Effect
- Activity (Jurkat [8]): inactive
- Activity [9]: Non-Toxic
- inhibition in vivo at 25 mg/kg (CT26 [17]): 47.2%
- inhibition in vivo at 25 mg/kg (CT26 [21]): 65.6%
- Activity (Jurkat [22]): Active
- Activity (Jurkat [32]): inactive
